Data on three compounds can be found in paper PMC10895678 (Journal of Medicinal Chemistry, 2024).

One may read the MIC99 as an inhibitory concentration at the 99% level, which refers to growth in some studies and to a panel of isolates in others.

For experiment [1], the system named is BCG pTIC6-fbpA. Format: cell-based, Mycobacterium bovis BCG.
Experiment [2] concerns BCG pTIC6-fbpB. Format: cell-based, Mycobacterium bovis BCG.
In experiment [3] the test system is BCG pTIC6-fbpC. The experiment is classed as cell-based, Mycobacterium bovis BCG.
Experiment [4] concerns M. tuberculosis H37Rv. The experiment is described as follows: Mycobacterial time kill experiments (total viable counts). Format: cell-based, Mycobacterium tuberculosis. The note with it: 29 μM, by day 10, to limit of detection (100 CFU mL^–1).
Experiment [5] concerns M. smegmatis. The experiment is described as follows: MIC determination, resazurin end point assay, M. smegmatis. Format: cell-based, Mycobacterium smegmatis. For orientation: The colour change of resazurin is a common sign of viable cells or microbes.
In experiment [6] the test system is M. bovis BCG. The experiment is described as follows: microbe, parasite or virus in culture. Format: cell-based, Mycobacterium bovis BCG.

`O=c1c2ccccc2[se]n1-c1ccccc1` [Ebselen, reference compound]: in experiment [1], the BCG pTIC6-fbpA MIC was 28 µM and the “shift in MIC upon overexpression of FbpA” value is on record as “No shift in MIC”. Further, in experiment [2], the BCG pTIC6-fbpB MIC came out at 90 µM and the “increase in MIC upon overexpression of FbpB” value is “three-fold increase”. Moreover, in experiment [3], the BCG pTIC6-fbpC MIC came to 98 µM and the “increase in MIC upon overexpression of FbpC” value was “three-fold increase”.
For the compound `NNC(=O)c1ccncc1` [Isoniazid, reference compound], in experiment [4], the “reduction of total viable count” value is given as > 4.52 ± 0.60 log10 CFU mL^–1.
On to “(rac)-1-(((2,4-cis)-1-(2-bromobenzyl)-4-phenylazetidin-2-yl)methyl)-4-(4-(trifluoromethyl)phenyl)piperidine [BGAz-016]”, for which the MIC99 in experiment [5] (resazurin end point assay, modified Gompertz function, three biological replicates, read-out: M. smeg. MIC99) is reported as 100 µM. Moreover, in experiment [5] (supplementary MIC data file), the MIC50 smegmatis amounted to 34 µM and the MIC99 smegmatis is > 100 µM. In experiment [6] (resazurin end point assay, modified Gompertz function, three biological replicates), the “BCG MIC99” value came out at 60 µM. Further, in experiment [6] (supplementary MIC data file), the “MIC50 BCG” value was 48 µM and the “MIC99 BCG” value worked out at 60 µM.
